Assay: xn = mol fraction of the nth substance listed

COCCO + CCCO
Conditions	viscosity [mPa·s]
298.15 K, 100 kPa, x1 = 0.1005	1.79
298.15 K, 100 kPa, x1 = 0.2016	1.68
298.15 K, 100 kPa, x1 = 0.3013	1.61
298.15 K, 100 kPa, x1 = 0.4012	1.56
298.15 K, 100 kPa, x1 = 0.5013	1.53
298.15 K, 100 kPa, x1 = 0.6005	1.52
298.15 K, 100 kPa, x1 = 0.7008	1.52
298.15 K, 100 kPa, x1 = 0.8003	1.52
298.15 K, 100 kPa, x1 = 0.9001	1.54
298.15 K, 101 kPa, x1 = 0.08067	1.901
298.15 K, 101 kPa, x1 = 0.1649	1.776
298.15 K, 101 kPa, x1 = 0.2529	1.692
298.15 K, 101 kPa, x1 = 0.3449	1.65
298.15 K, 101 kPa, x1 = 0.4413	1.624
298.15 K, 101 kPa, x1 = 0.5423	1.601
298.15 K, 101 kPa, x1 = 0.6482	1.59
298.15 K, 101 kPa, x1 = 0.7596	1.58
298.15 K, 101 kPa, x1 = 0.8767	1.571
298.15 K, 101.33 kPa, x1 = 0.0072	1.938
298.15 K, 101.33 kPa, x1 = 0.0141	1.926
298.15 K, 101.33 kPa, x1 = 0.0297	1.898
298.15 K, 101.33 kPa, x1 = 0.0471	1.867
298.15 K, 101.33 kPa, x1 = 0.062	1.844
308.15 K, 101 kPa, x1 = 0.08067	1.34
308.15 K, 101 kPa, x1 = 0.1014	1.435
308.15 K, 101 kPa, x1 = 0.1502	1.402
308.15 K, 101 kPa, x1 = 0.1649	1.264
308.15 K, 101 kPa, x1 = 0.2508	1.351
308.15 K, 101 kPa, x1 = 0.2529	1.249
308.15 K, 101 kPa, x1 = 0.3049	1.331
308.15 K, 101 kPa, x1 = 0.3449	1.227
308.15 K, 101 kPa, x1 = 0.3667	1.301
308.15 K, 101 kPa, x1 = 0.4257	1.303
308.15 K, 101 kPa, x1 = 0.4413	1.206
308.15 K, 101 kPa, x1 = 0.4838	1.28
308.15 K, 101 kPa, x1 = 0.5161	1.278
308.15 K, 101 kPa, x1 = 0.5378	1.276
308.15 K, 101 kPa, x1 = 0.5423	1.179
308.15 K, 101 kPa, x1 = 0.5647	1.279
308.15 K, 101 kPa, x1 = 0.6129	1.27
308.15 K, 101 kPa, x1 = 0.6482	1.154
308.15 K, 101 kPa, x1 = 0.67	1.252
308.15 K, 101 kPa, x1 = 0.7387	1.25
308.15 K, 101 kPa, x1 = 0.7596	1.131
308.15 K, 101 kPa, x1 = 0.7685	1.251
308.15 K, 101 kPa, x1 = 0.8213	1.251
308.15 K, 101 kPa, x1 = 0.8767	1.125
308.15 K, 101 kPa, x1 = 0.8898	1.253
308.15 K, 101 kPa, x1 = 0.9239	1.253
308.15 K, 101 kPa, x1 = 0.9491	1.26
308.15 K, 101 kPa, x1 = 0.9574	1.264
308.15 K, 101 kPa, x1 = 0.9686	1.277
308.15 K, 101 kPa, x2 = 0.0129	1.288
308.15 K, 101.33 kPa, x1 = 0.117	1.362
308.15 K, 101.33 kPa, x1 = 0.1795	1.319
308.15 K, 101.33 kPa, x1 = 0.3024	1.26
308.15 K, 101.33 kPa, x1 = 0.4526	1.207
308.15 K, 101.33 kPa, x1 = 0.5265	1.192
308.15 K, 101.33 kPa, x1 = 0.6439	1.185
308.15 K, 101.33 kPa, x1 = 0.7915	1.182
308.15 K, 101.33 kPa, x1 = 0.8693	1.174
313.15 K, 100 kPa, x1 = 0.1005	1.3
313.15 K, 100 kPa, x1 = 0.2016	1.23
313.15 K, 100 kPa, x1 = 0.3013	1.19
313.15 K, 100 kPa, x1 = 0.4012	1.16
313.15 K, 100 kPa, x1 = 0.5013	1.15
313.15 K, 100 kPa, x1 = 0.6005	1.14
313.15 K, 100 kPa, x1 = 0.7008	1.14
313.15 K, 100 kPa, x1 = 0.8003	1.15
313.15 K, 100 kPa, x1 = 0.9001	1.16
318.15 K, 101 kPa, x1 = 0.08067	1.099
318.15 K, 101 kPa, x1 = 0.1014	1.168
318.15 K, 101 kPa, x1 = 0.1502	1.142
318.15 K, 101 kPa, x1 = 0.1649	1.058
318.15 K, 101 kPa, x1 = 0.2508	1.089
318.15 K, 101 kPa, x1 = 0.2529	1.003
318.15 K, 101 kPa, x1 = 0.3049	1.079
318.15 K, 101 kPa, x1 = 0.3449	0.9764
318.15 K, 101 kPa, x1 = 0.3667	1.062
318.15 K, 101 kPa, x1 = 0.4257	1.052
318.15 K, 101 kPa, x1 = 0.4413	0.9794
318.15 K, 101 kPa, x1 = 0.4838	1.036
318.15 K, 101 kPa, x1 = 0.5161	1.029
318.15 K, 101 kPa, x1 = 0.5378	1.032
318.15 K, 101 kPa, x1 = 0.5423	0.9701
318.15 K, 101 kPa, x1 = 0.5647	1.028
318.15 K, 101 kPa, x1 = 0.6129	1.021
318.15 K, 101 kPa, x1 = 0.6482	0.9645
318.15 K, 101 kPa, x1 = 0.67	1.017
318.15 K, 101 kPa, x1 = 0.7387	1.018
318.15 K, 101 kPa, x1 = 0.7596	0.9589
318.15 K, 101 kPa, x1 = 0.7685	1.018
318.15 K, 101 kPa, x1 = 0.8213	1.016
318.15 K, 101 kPa, x1 = 0.8767	0.9552
318.15 K, 101 kPa, x1 = 0.8898	1.022
318.15 K, 101 kPa, x1 = 0.9239	1.025
318.15 K, 101 kPa, x1 = 0.9491	1.029
318.15 K, 101 kPa, x1 = 0.9574	1.028
318.15 K, 101 kPa, x1 = 0.9686	1.027
318.15 K, 101 kPa, x2 = 0.0129	1.029
